Measurements as given in PMC3903614, “Factors That Control the Chemistry of the LOV Domain Photocycle” (PLoS ONE, 2014).

Legend:
Experiment in all cases: UV-Vis absorbance of bound flavin, dark recovery after photosaturation
Assay type in all cases: binding
[1] = target: T1, AsLOV2 (A. sativa phot1 LOV2) (Avena sativa, UniProt O49003, N414L); conditions: 22 °C; bound chromophore; covalent photoadduct with C450 in the light; adduct decay time, not an affinity
T1 construct: gene NPH1-1; LOV2 domain with flanking helices, residues 404-560; His6-Gβ1 tag removed by TEV; GEF left on the amino terminus and G on the carboxy terminus; expressed in E. coli BL21(DE3)
From the text: (§1) UV-Vis absorbance of bound flavin, dark recovery after photosaturation on AsLOV2 (A. sativa phot1 LOV2)

[2] = target: T2, AsLOV2 (A. sativa phot1 LOV2) (Avena sativa, UniProt O49003, N414Q); conditions: 22 °C; bound chromophore; covalent photoadduct with C450 in the light; adduct decay time, not an affinity
T2 construct: gene NPH1-1; LOV2 domain with flanking helices, residues 404-560; His6-Gβ1 tag removed by TEV; GEF left on the amino terminus and G on the carboxy terminus; expressed in E. coli BL21(DE3)
From the text: as §1

[3] = target: T3, AsLOV2 (A. sativa phot1 LOV2) (Avena sativa, UniProt O49003, N414G); conditions: 22 °C; bound chromophore; covalent photoadduct with C450 in the light; adduct decay time, not an affinity
T3 construct: gene NPH1-1; LOV2 domain with flanking helices, residues 404-560; His6-Gβ1 tag removed by TEV; GEF left on the amino terminus and G on the carboxy terminus; expressed in E. coli BL21(DE3)
From the text: as §1

[4] = target: T4, AsLOV2 (A. sativa phot1 LOV2) (Avena sativa, UniProt O49003, Q513D); conditions: 22 °C; bound chromophore; covalent photoadduct with C450 in the light; adduct decay time, not an affinity
T4 construct: gene NPH1-1; LOV2 domain with flanking helices, residues 404-560; His6-Gβ1 tag removed by TEV; GEF left on the amino terminus and G on the carboxy terminus; expressed in E. coli BL21(DE3)
From the text: as §1

[5] = target: T5, AsLOV2 (A. sativa phot1 LOV2) (Avena sativa, UniProt O49003, N414A); conditions: 22 °C; bound chromophore; covalent photoadduct with C450 in the light; adduct decay time, not an affinity
T5 construct: gene NPH1-1; LOV2 domain with flanking helices, residues 404-560; His6-Gβ1 tag removed by TEV; GEF left on the amino terminus and G on the carboxy terminus; expressed in E. coli BL21(DE3)
From the text: as §1

[6] = target: T6, AsLOV2 (A. sativa phot1 LOV2) (Avena sativa, UniProt O49003, C450V/F494C); conditions: 22 °C; relocated active-site cysteine (C494); covalent photoadduct in the light, <10% bleaching; adduct decay time, not an affinity
T6 construct: gene NPH1-1; LOV2 domain with flanking helices, residues 404-560; His6-Gβ1 tag removed by TEV; GEF left on the amino terminus and G on the carboxy terminus; expressed in E. coli BL21(DE3)
From the text: as §1

[7] = target: T7, AsLOV2 (A. sativa phot1 LOV2) (Avena sativa, UniProt O49003, Q513L); conditions: 22 °C; bound chromophore; covalent photoadduct with C450 in the light; adduct decay time, not an affinity
T7 construct: gene NPH1-1; LOV2 domain with flanking helices, residues 404-560; His6-Gβ1 tag removed by TEV; GEF left on the amino terminus and G on the carboxy terminus; expressed in E. coli BL21(DE3)
From the text: as §1

[8] = target: T8, AsLOV2 (A. sativa phot1 LOV2) (Avena sativa, UniProt O49003, F494C); conditions: 22 °C; bound chromophore; covalent photoadduct with C450 in the light; adduct decay time, not an affinity
T8 construct: gene NPH1-1; LOV2 domain with flanking helices, residues 404-560; His6-Gβ1 tag removed by TEV; GEF left on the amino terminus and G on the carboxy terminus; expressed in E. coli BL21(DE3)
From the text: as §1

[9] = target: T9, AsLOV2 (A. sativa phot1 LOV2) (Avena sativa, UniProt O49003, N414D); conditions: 22 °C; bound chromophore; covalent photoadduct with C450 in the light; adduct decay time, not an affinity
T9 construct: gene NPH1-1; LOV2 domain with flanking helices, residues 404-560; His6-Gβ1 tag removed by TEV; GEF left on the amino terminus and G on the carboxy terminus; expressed in E. coli BL21(DE3)
From the text: as §1

[10] = target: T10, AsLOV2 (A. sativa phot1 LOV2) (Avena sativa, UniProt O49003); conditions: 22 °C; bound chromophore; covalent cysteinyl-C4a photoadduct with C450 in the light, noncovalent in the dark; adduct decay time, not an affinity; Table 1 gives 80 s from earlier work
T10 construct: gene NPH1-1; LOV2 domain with flanking helices, residues 404-560; His6-Gβ1 tag removed by TEV; GEF left on the amino terminus and G on the carboxy terminus; expressed in E. coli BL21(DE3)
T10 sequence (O49003 entry or part of it): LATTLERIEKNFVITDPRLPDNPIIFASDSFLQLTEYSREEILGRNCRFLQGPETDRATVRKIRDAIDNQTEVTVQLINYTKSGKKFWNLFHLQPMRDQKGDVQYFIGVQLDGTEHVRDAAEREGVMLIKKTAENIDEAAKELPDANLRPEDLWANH

T4 sequence (O49003 entry or part of it Q513D): as the sequence (O49003 entry or part of it) above, with Q110D counted along it
T1 sequence (O49003 entry or part of it N414L): as the sequence (O49003 entry or part of it) above, with N11L counted along it
T8 sequence (O49003 entry or part of it F494C): as the sequence (O49003 entry or part of it) above, with F91C counted along it
T6 sequence (O49003 entry or part of it C450V/F494C): as the sequence (O49003 entry or part of it) above, with C47V, F91C counted along it
T2 sequence (O49003 entry or part of it N414Q): as the sequence (O49003 entry or part of it) above, with N11Q counted along it
T7 sequence (O49003 entry or part of it Q513L): as the sequence (O49003 entry or part of it) above, with Q110L counted along it
T5 sequence (O49003 entry or part of it N414A): as the sequence (O49003 entry or part of it) above, with N11A counted along it
T9 sequence (O49003 entry or part of it N414D): as the sequence (O49003 entry or part of it) above, with N11D counted along it
T3 sequence (O49003 entry or part of it N414G): as the sequence (O49003 entry or part of it) above, with N11G counted along it

τFMN [1]: 1847 s
τFMN [2]: 280 s
τFMN [3]: 615 s
τFMN [4]: 5 s
τFMN [5]: 1427 s
τFMN [6]: 69 s
τFMN [7]: 1793 s
τFMN [8]: 282 s
τFMN [9]: 69 s
τFMN [10]: 81 ± 2 s
SMILES: Cc1cc2nc3c(=O)[nH]c(=O)nc-3n(C[C@H](O)[C@H](O)[C@H](O)COP(=O)(O)O)c2cc1C [FMN, flavin mononucleotide]
